The source of these data is patent publication US6399105B1, “Sea cucumber carotenoid lipid fraction products and methods of use” (priority 2000, dated 2002).

The test system of assay [1] is adjuvant induced arthritis. The experiment in a line: Adjuvant induced arthritis assay in rats. The class given is in vivo, rat. The note with it: 10 mg/kg orally once per day for 7 days; for Mean Paw Wt.: 6 rats; for % Anti-inflammatory Response: (control - test)/test x 100.
A further assay addresses T1, 5-lipoxygenase (5-LO) (Homo sapiens, UniProt P09917).
T1 construct: Human PMNs isolated by standard procedures from a normal volunteer were prewarmed to 37° C; endogenous in cells; host or cells: human polymorphonuclear leukocytes (neutrophils) from a normal volunteer
T1 sequence (P09917 1-674): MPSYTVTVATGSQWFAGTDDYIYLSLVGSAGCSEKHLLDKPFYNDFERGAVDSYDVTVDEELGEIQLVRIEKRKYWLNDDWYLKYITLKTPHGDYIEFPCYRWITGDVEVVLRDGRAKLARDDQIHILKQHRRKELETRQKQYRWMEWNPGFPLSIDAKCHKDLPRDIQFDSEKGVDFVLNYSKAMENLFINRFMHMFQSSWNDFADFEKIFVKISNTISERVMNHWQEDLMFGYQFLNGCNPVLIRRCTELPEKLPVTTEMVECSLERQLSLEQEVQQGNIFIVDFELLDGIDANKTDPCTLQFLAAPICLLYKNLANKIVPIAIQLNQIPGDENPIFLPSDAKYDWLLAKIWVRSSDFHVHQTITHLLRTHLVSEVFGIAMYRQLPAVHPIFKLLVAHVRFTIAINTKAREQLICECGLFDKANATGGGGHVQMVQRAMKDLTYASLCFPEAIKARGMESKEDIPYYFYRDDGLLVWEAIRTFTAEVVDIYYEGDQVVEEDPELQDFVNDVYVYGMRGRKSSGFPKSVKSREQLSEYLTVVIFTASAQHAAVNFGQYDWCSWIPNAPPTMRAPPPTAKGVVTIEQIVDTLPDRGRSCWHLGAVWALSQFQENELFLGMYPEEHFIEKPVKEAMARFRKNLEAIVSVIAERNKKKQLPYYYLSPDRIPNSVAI
The experiment in a line: 5-Lipoxygenase assay in human PMNs (LTB4, isomers, 5-HETE by HPLC). In kind it is cell-based. The note with it: human neutrophils. From the text: 5-lipoxygenase (5-LO) is a key enzyme in the metabolism of arachidonic acid (AA) to leukotriene B4 (LTB4) and hydroxyeicosatetraenoic acid (5-HETE) it a wide variety of cells. including polymorphonuclear (PMN) leukocytes (Henderson, 1994) and has recently been linked to prostate and other cancers (Ghosh and Myers, 1997). LTB4 is a chemotaxic signaling agent involved in the migration of PMNs from the blood stream to sites of tissue injury, which is a hallmark of the inflammatory response. Human PMNs isolated by standard procedures from a normal volunteer were prewarmed to 37° C. and, at time=0, 10 μL of test compounds suspended in methanol by sonication, or methanol alone, were added to 1 mL of the PMN suspension. At t=10 min, […] of 2 mM AA were added to each suspension as the 5-LO substrate. At t=14 min, the calcium ionophore A23187 ([…], 1 mM) was added to activate the enzyme. The reaction was terminated at t=19 minutes by 100 μL of 100 mM citric acid, maintaining a pH of 3.0. Prostaglandin B2 and 15-HETE were added as internal standards for high pressure liquid chromatography (HPLC) quantification of LTB, and 5-HETE, respectively. Metabolites and standards were extracted from the suspension with chloroform/methanol (7:3). […] Metabolites were detected by ultraviolet light and quantified against standard curves. […]

The next assay concerns the target T2, 12-lipoxygenase (Homo sapiens, UniProt P18054).
T2 construct: assayed by the method similar to the assay for 5-lipoxygenase by using human platelets; endogenous in cells; host or cells: human platelets (mixed with polymorphonuclear leukocytes, challenged with A23187)
T2 sequence (P18054 1-663): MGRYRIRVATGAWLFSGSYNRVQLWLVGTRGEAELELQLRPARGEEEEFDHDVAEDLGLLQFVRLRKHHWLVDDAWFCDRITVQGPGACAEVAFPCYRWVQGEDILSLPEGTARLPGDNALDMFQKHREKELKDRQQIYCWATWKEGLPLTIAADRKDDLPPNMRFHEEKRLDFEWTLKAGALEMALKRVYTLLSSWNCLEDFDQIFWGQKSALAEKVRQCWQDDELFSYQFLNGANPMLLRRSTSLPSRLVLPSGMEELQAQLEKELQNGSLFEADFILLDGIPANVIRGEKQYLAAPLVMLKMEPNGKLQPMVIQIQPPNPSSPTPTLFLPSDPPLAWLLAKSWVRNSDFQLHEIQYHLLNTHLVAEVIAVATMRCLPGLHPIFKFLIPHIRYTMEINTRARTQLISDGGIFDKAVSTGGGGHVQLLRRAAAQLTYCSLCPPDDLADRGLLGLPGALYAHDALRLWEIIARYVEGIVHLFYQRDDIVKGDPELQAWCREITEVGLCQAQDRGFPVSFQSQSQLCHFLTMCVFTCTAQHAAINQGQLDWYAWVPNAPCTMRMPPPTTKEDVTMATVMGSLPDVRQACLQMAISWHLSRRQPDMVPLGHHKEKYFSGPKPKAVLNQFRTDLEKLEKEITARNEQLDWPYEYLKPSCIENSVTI
The experiment in a line: 12-HETE assay using human platelets. The class given is cell-based. The procedure: RED OIL and GOLD OIL were assayed by the method similar to the assay for 5-lipoxygenase by using human platelets. Polymorphonuclear leukocytes were mixed, challenged with A23187, and 12-HETE production was measured by high pressure liquid chromatography (HPLC). Addition of a 1:10,000 dilution of RED OIL to the reaction yielded 12-HETE levels that were 65% that of methanolic controls, while A 1:1000 dilution of GOLD OIL yielded levels that were 46% of controls.

Assay [2] deals with PC3, MCF7, HT29 or BRO cell lines. The experiment in a line: Anti-cancer assays, MTT viable dye method, 72 hr. In kind it is cell-based. The following applies: human cancer cell lines. The procedure:
RED OIL and GOLD OIL and various thin-layer chromatographic fractions have been tested against human cancer cell lines in vitro. Materials were initially dissolved in dimethyl sulfoxide and then diluted in tissue culture media. Aliquots of 23 μg/mL were then applied to PC3 (human prostate), MCF7 (human breast adenocarcinoma), HT29 (human colon adenocarcinoma) or BRO (human melanoma) cell lines. These fractions mediated inhibition of cell growth relative to untreated control cells as assessed after 72 hr by the MTT viable dye method as is commonly used by those skilled in the arts. […] One such fraction isolated from sea cucumber lipid phase by the method of Findlay et al. (1983b), plastochromanol-8, was considered to be promising in that values of 20-50 μg/mL were determined as IC50 values (that concentration inhibiting 50% of cell growth). […] Plastochromanol-8 was also shown to be inhibitory of the 12-Lipoxygenase pathway in human platelets.

Assay [3] deals with leukotriene synthesis in human neutrophils. The experiment in a line: Leukotriene activation/synthesis assay in human neutrophils (method of Betts). The class given is cell-based. From the text: In a leukotriene activation assay showing the effect of plastochromanol-8 on leukotriene synthesis expressed as a percentage of a methanol control in human neutrophils, by the method of Betts (1997), plastochromanol-8 inhibited activation of 5-HETE by approximately 60 percent, LTB4 by approximately 40 percent, and two of the 6-trans isomers of LTB4 (6-trans-leukotriene B4 and 6-trans-12-epileukotriene B4), by 75%. In a related assay of the effect of plastochromanol-8 on leukotriene synthesis expressed as leukotriene synthesis per 10^6 PMN, plastochromanol-8 inhibited the production of 5-HETE by approximately 75%, LTB4 by 50%, and the two trans-6 isomers of LTB4 by approximately 80%. In similar assays with human platelets, plastochromanol-8 inhibited 12-HETE synthesis by approximately 80%.

The mark [4] stands for this setting: leukotriene synthesis as percentage of methanol control.
The mark [5] stands for this setting: leukotriene synthesis per 10^6 PMN.

As to `CCCCC1C(=O)N(c2ccccc2)N(c2ccccc2)C1=O` [Phenylbutazone], in assay [1], the “Mean Paw Wt.” value was found to be 0.38 gm and the “% Anti-inflammatory Response” value is reported as 155.3%.

For the compound `C[C@]12CCC(=O)C=C1CC[C@@H]1[C@@H]2[C@@H](O)C[C@@]2(C)[C@H]1CC[C@]2(O)C(=O)CO` [Hydrocortisone], in assay [1], the “Mean Paw Wt.” value was determined as 0.61 gm and the “% Anti-inflammatory Response” value is 59.0%.

On to `CC(C)=CCC/C(C)=C/CC/C(C)=C/CC/C(C)=C/CC/C(C)=C/CC/C(C)=C/CC/C(C)=C/CC/C(C)=C/CC[C@]1(C)CCc2cc(O)c(C)c(C)c2O1` [plastochromanol-8], for which the “inhibition of 5-lipoxygenase metabolite synthesis (LTB4, isomers, 5-HETE), in words” value on 5-lipoxygenase (5-LO) is “dramatic inhibitor”. In addition, at 12-lipoxygenase, the “inhibition of 12-HETE synthesis” value is “approximately 80%” and the “inhibition of 12-lipoxygenase pathway, in words” value is “inhibitory”. In addition, the “IC50 (concentration inhibiting 50% of cell growth)” value in assay [2] lay within 20 to 50 µg/mL. Further, in assay [3] (setting [4]), the “inhibition of 5-HETE” value is listed as “approximately 60%”; the “inhibition of 6-trans-leukotriene B4 and 6-trans-12-epileukotriene B4” value amounted to 75%; the “inhibition of LTB4” value is on record as “approximately 40%”. In assay [3] (setting [5]), the “inhibition of production of 5-HETE” value is “approximately 75%”, the “inhibition of production of LTB4” value is listed as 50% and the “inhibition of production of the two trans-6 isomers of LTB4” value was “approximately 80%”.
